Test results published in patent publication US10457655B2, “Compounds and compositions for inhibition of FASN” (FORMA Therapeutics, Inc., priority 2013, dated 2019).
pIC50: −log10 of the molar value. Where two headings read alike, the source gives them in different places.

Assays:
PC3 cells = assay: Cell Proliferation Assays for FASN Inhibitors (PC3 cells, MTT); format: cell-based; settings: Homo sapiens, PC-3, 96 h
Protocol: The effects of the FASN inhibitors on cultured cancer cell proliferation were studies with cell proliferation assays. PC3 cells were maintained at standard culture media (F12K media supplemented with 10% fetal bovine serum, 1×MEM nonessential amino acid and 1× penicillin/streptomycin). 2000-3000 cells/100 μL/well was seeded in a 96-well clear culture plate. The cells were incubated overnight in 5% CO2 at 37° C. for attachment. Cell media were removed and replaced with F12K media containing 10% lipid reduced serum and compound. The final DMSO concentration is 0.1%. The cells were maintained in 5% CO2 at 37° C. for 4 days. The viability of cells was determined by MTT assays. The IC50 of a given compound was calculated by fitting the dose response curve with a four parameter logistic equation.

FASN enzyme = FASN enzyme (Homo sapiens, UniProt P49327); assay: Enzymatic Assay for FASN Inhibitors; format: biochemical
Sequence of FASN enzyme (P49327 whole entry): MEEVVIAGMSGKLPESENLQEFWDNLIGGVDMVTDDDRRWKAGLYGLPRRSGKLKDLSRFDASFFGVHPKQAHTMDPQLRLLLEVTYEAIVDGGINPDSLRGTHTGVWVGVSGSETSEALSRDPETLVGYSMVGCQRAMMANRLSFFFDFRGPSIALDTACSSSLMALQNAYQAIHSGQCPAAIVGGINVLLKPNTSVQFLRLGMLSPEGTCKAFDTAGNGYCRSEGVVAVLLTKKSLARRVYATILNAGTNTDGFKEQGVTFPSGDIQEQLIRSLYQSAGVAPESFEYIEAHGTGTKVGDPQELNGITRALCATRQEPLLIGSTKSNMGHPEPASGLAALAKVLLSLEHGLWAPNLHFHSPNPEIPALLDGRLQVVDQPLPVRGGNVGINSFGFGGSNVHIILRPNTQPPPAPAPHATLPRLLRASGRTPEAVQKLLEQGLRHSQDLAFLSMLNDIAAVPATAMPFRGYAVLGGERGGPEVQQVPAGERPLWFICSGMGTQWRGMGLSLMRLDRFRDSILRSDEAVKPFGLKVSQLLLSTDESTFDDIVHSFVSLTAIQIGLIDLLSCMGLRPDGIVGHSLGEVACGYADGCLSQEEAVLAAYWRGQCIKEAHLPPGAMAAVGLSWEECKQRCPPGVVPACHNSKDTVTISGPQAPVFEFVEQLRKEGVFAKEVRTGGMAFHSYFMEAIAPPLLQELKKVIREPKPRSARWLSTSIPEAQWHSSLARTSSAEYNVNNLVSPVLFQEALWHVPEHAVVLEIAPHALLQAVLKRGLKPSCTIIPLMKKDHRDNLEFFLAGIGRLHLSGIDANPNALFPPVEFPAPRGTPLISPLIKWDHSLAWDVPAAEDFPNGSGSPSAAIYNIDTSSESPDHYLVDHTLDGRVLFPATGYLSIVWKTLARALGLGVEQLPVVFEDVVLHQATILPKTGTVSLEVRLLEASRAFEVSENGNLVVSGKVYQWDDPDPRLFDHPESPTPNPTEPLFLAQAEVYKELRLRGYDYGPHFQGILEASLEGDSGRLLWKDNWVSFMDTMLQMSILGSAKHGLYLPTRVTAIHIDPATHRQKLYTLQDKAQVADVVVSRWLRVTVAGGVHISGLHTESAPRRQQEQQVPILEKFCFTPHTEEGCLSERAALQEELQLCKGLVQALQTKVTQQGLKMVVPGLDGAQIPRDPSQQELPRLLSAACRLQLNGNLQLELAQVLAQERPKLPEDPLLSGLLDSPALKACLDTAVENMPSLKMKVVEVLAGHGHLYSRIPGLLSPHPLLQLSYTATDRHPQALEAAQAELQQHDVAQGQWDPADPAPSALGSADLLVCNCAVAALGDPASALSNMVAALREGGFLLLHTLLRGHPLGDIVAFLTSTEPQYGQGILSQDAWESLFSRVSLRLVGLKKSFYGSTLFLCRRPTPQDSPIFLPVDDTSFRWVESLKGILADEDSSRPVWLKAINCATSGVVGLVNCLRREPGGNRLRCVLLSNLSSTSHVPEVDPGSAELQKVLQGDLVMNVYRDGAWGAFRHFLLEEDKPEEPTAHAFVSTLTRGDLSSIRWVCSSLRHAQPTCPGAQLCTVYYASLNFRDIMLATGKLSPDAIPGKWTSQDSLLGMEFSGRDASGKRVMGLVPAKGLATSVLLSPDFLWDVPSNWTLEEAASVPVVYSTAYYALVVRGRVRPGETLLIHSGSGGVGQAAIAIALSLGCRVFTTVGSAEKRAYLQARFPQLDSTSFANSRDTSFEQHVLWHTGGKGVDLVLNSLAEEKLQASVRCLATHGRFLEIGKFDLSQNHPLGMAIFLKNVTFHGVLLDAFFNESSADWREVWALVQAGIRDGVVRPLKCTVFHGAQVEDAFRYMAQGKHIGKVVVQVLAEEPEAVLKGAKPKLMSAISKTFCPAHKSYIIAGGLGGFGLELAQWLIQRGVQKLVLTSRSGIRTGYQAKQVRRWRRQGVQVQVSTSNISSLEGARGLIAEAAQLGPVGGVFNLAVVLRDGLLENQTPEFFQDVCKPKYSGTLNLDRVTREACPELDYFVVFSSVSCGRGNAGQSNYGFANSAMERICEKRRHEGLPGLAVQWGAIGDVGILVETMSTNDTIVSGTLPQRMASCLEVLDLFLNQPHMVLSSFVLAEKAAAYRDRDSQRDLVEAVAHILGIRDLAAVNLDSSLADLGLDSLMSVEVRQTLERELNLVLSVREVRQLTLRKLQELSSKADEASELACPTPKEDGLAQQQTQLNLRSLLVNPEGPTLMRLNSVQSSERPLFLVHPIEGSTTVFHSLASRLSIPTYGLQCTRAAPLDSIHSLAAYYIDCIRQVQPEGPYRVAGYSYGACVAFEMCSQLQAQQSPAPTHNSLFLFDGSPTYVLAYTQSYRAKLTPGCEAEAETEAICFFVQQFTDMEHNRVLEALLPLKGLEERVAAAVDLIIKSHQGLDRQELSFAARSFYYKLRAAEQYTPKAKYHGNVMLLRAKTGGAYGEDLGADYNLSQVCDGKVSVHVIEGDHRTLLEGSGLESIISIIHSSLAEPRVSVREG
Procedure, shortened: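 40 nM FASN preincubated with compound 60 min at 25° C in HEPES pH 7.3 buffer with 0.04% Triton X-100. Then 20 μM acetyl-CoA, 60 μM malonyl-CoA and 100 μM NADPH added for 90 min, quenched with CPM thiol probe; fluorescence 360/530 nm, IC50 by four-parameter fit.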

[1] = read-out: IC50 (uM) < 0.5, 10% lipid reduced serum, 4 days, Table 3-1
[2] = read-out: IC50 (uM) ≥ 0.5, 10% lipid reduced serum, 4 days, Table 3-2

| SMILES | IC50 (PC3 cells; [1]) | pIC50 (FASN enzyme) | IC50 (PC3 cells; [2]) | pIC50 (FASN enzyme; FASN enzymatic assay, Table 2-2) |
| --- | --- | --- | --- | --- |
| COc1c(Cl)cccc1-c1ccc(C(=O)N2CCN(C(=O)C3(O)CC3)CC2)cc1 [1-[(4-{[4-(3-chloro-2-methoxyphenyl)phenyl]carbonyl}piperazin-1-yl)carbonyl]cyclopropan-1-ol] | < 0.5 µM | > 6.30 | – | – |
| O=C(c1ccc(-c2ccc(Cl)cc2F)cc1)N1CCN(C(=O)C2(O)CC2)CC1 [1-[(4-{[4-(4-chloro-2-fluorophenyl)phenyl]carbonyl}piperazin-1-yl)carbonyl]cyclopropan-1-ol] | < 0.5 µM | > 6.30 | – | – |
| O=C(c1ccc(-c2cnc3ccccc3c2Cl)cc1)N1CCN(C(=O)C2(O)CC2)CC1 [1-[(4-{[4-(4-chloroquinolin-3-yl)phenyl]carbonyl}piperazin-1-yl)carbonyl]cyclopropan-1-ol] | < 0.5 µM | > 6.30 | – | – |
| O=C(c1ccc(-c2nc3cc(Cl)ccc3o2)cc1)N1CCN(C(=O)C2(O)CC2)CC1 [1-[(4-{[4-(5-chloro-1,3-benzoxazol-2-yl)phenyl]carbonyl}piperazin-1-yl)carbonyl]cyclopropan-1-ol] | < 0.5 µM | > 6.30 | – | – |
| O=C(c1ccc(-c2cc(Cl)ccc2F)cc1)N1CCN(C(=O)C2(O)CC2)CC1 [1-[(4-{[4-(5-chloro-2-fluorophenyl)phenyl]carbonyl}piperazin-1-yl)carbonyl]cyclopropan-1-ol] | < 0.5 µM | > 6.30 | – | – |
| O=C(c1ccc(-c2nc3cc(F)ccc3o2)cc1)N1CCN(C(=O)C2(O)CC2)CC1 [1-[(4-{[4-(5-fluoro-1,3-benzoxazol-2-yl)phenyl]carbonyl}piperazin-1-yl)carbonyl]cyclopropan-1-ol] | < 0.5 µM | > 6.30 | – | – |
| O=C(c1ccc(-c2nc3ccc(Cl)cc3o2)cc1)N1CCN(C(=O)C2(O)CC2)CC1 [1-[(4-{[4-(6-chloro-1,3-benzoxazol-2-yl)phenyl]carbonyl}piperazin-1-yl)carbonyl]cyclopropan-1-ol] | < 0.5 µM | > 6.30 | – | – |
| O=C(c1ccc(-c2nc3ccc(F)cc3o2)cc1)N1CCN(C(=O)C2(O)CC2)CC1 [1-[(4-{[4-(6-fluoro-1,3-benzoxazol-2-yl)phenyl]carbonyl}piperazin-1-yl)carbonyl]cyclopropan-1-ol] | < 0.5 µM | > 6.30 | – | – |
| COc1ccc2nc(-c3ccc(C(=O)N4CCN(C(=O)C5(O)CC5)CC4)cc3)cc(C)c2c1 [1-[(4-{[4-(6-methoxy-4-methylquinolin-2-yl)phenyl]carbonyl}piperazin-1-yl)carbonyl]cyclopropan-1-ol] | < 0.5 µM | > 6.30 | – | – |
| COc1ccc2cc(-c3ccc(C(=O)N4CCN(C(=O)C5(O)CC5)CC4)cc3)ccc2c1 [1-[(4-{[4-(6-methoxynaphthalen-2-yl)phenyl]carbonyl}piperazin-1-yl)carbonyl]cyclopropan-1-ol] | < 0.5 µM | > 6.30 | – | – |
| COc1ccc2nc(-c3ccc(C(=O)N4CCN(C(=O)C5(O)CC5)CC4)cc3)ccc2c1 [1-[(4-{[4-(6-methoxyquinolin-2-yl)phenyl]carbonyl}piperazin-1-yl)carbonyl]cyclopropan-1-ol] | < 0.5 µM | > 6.30 | – | – |
| O=C(c1ccc(-c2nccc3ccccc23)cc1)N1CCN(C(=O)C2(O)CC2)CC1 [1-[(4-{[4-(isoquinolin-1-yl)phenyl]carbonyl}piperazin-1-yl)carbonyl]cyclopropan-1-ol] | < 0.5 µM | > 6.30 | – | – |
| O=C(c1ccc(-c2ccc3cnccc3c2)cc1)N1CCN(C(=O)C2(O)CCC2)CC1 [1-[(4-{[4-(isoquinolin-6-yl)phenyl]carbonyl}piperazin-1-yl)carbonyl]cyclobutan-1-ol] | < 0.5 µM | > 6.30 | – | – |
| O=C(c1ccc(-c2ccc3cnccc3c2)cc1)N1CCN(C(=O)C2(O)CC2)CC1 [1-[(4-{[4-(isoquinolin-6-yl)phenyl]carbonyl}piperazin-1-yl)carbonyl]cyclopropan-1-ol] | < 0.5 µM | > 6.30 | – | – |
| O=C(c1ccc(-c2ccc3ccccc3n2)cc1)N1CCN(C(=O)C2(O)CC2)CC1 [1-[(4-{[4-(quinolin-2-yl)phenyl]carbonyl}piperazin-1-yl)carbonyl]cyclopropan-1-ol] | < 0.5 µM | > 6.30 | – | – |
| O=C(c1ccc(-c2cnc3ccccc3c2)cc1)N1CCN(C(=O)C2(O)CCC2)CC1 [1-[(4-{[4-(quinolin-3-yl)phenyl]carbonyl}piperazin-1-yl)carbonyl]cyclobutan-1-ol] | < 0.5 µM | > 6.30 | – | – |
| O=C(c1ccc(-c2cccc3ncccc23)cc1)N1CCN(C(=O)C2(O)CC2)CC1 [1-[(4-{[4-(quinolin-5-yl)phenyl]carbonyl}piperazin-1-yl)carbonyl]cyclopropan-1-ol] | < 0.5 µM | > 6.30 | – | – |
| Cn1ccc2cc(-c3ccc(C(=O)N4CCN(C(=O)C5(O)CC5)CC4)nc3)ccc21 [1-[(4-{[5-(1-methyl-1H-indol-5-yl)pyridin-2-yl]carbonyl}piperazin-1-yl)carbonyl]cyclopropan-1-ol] | < 0.5 µM | > 6.30 | – | – |

More lines, now with the values ahead:

| IC50 (PC3 cells; [1]) | pIC50 (FASN enzyme) | IC50 (PC3 cells; [2]) | pIC50 (FASN enzyme; FASN enzymatic assay, Table 2-2) | SMILES |
| --- | --- | --- | --- | --- |
| – | > 6.30 | ≥ 0.5 µM | – | CC(C)n1ccc2cc(-c3ccc(C(=O)N4CCN(C(=O)C5(O)CC5)CC4)cc3Cl)ccc21 [1-{[4-({3-chloro-4-[1-(propan-2-yl)-1H-indol-5-yl]phenyl}carbonyl)piperazin-1-yl]carbonyl}cyclopropan-1-ol] |
| < 0.5 µM | > 6.30 | – | – | O=C(c1ccc(-c2ccc3c(ccn3C(F)(F)F)c2)c(Cl)c1)N1CCN(C(=O)C2(O)CC2)CC1 [1-{[4-({3-chloro-4-[1-(trifluoromethyl)-1H-indol-5-yl]phenyl}carbonyl)piperazin-1-yl]carbonyl}cyclopropan-1-ol] |
| < 0.5 µM | – | – | 5.30 to 6.30 | O=C(c1ccc(-c2ccc3c(ccn3C(F)(F)F)c2)cc1)N1CCN(C(=O)C2(O)CC2)CC1 [1-{[4-({4-[1-(trifluoromethyl)-1H-indol-5-yl]phenyl}carbonyl)piperazin-1-yl]carbonyl}cyclopropan-1-ol] |
| < 0.5 µM | > 6.30 | – | – | N#Cc1ccc2nc(-c3ccc(C(=O)N4CCN(C(=O)C5(O)CC5)CC4)cc3)oc2c1 [2-[4-({4-[(1-hydroxycyclopropyl)carbonyl]piperazin-1-yl}carbonyl)phenyl]-1,3-benzoxazole-6-carbonitrile] |
| < 0.5 µM | > 6.30 | – | – | O=C(c1ccc(-c2cc3ccccc3nc2O)cc1F)N1CCN(C(=O)C2(O)CC2)CC1 [3-[3-fluoro-4-({4-[(1-hydroxycyclopropyl)carbonyl]piperazin-1-yl}carbonyl)phenyl]quinolin-2-ol] |
| < 0.5 µM | > 6.30 | – | – | O=C(c1ccc(-c2cc3ccccc3[nH]c2=O)cc1)N1CCN(C(=O)C2(O)CC2)CC1 [3-[4-({4-[(1-hydroxycyclopropyl)carbonyl]piperazin-1-yl}carbonyl)phenyl]-1,2-dihydroquinolin-2-one] |
| – | > 6.30 | ≥ 0.5 µM | – | O=C(c1ccc(-c2cnc3ccccc3c2)cc1)N1CCN(C(=O)C2CCO2)CC1 (stereo not shown) [3-[4-({4-[(oxetan-2-yl)carbonyl]piperazin-1-yl}carbonyl)phenyl]quinoline] |
| < 0.5 µM | > 6.30 | – | – | N#Cc1cc2cc(-c3ccc(C(=O)N4CCN(C(=O)C5(O)CC5)CC4)cc3)ccc2[nH]1 [5-[4-({4-[(1-hydroxycyclopropyl)carbonyl]piperazin-1-yl}carbonyl)phenyl]-1H-indole-2-carbonitrile] |
| < 0.5 µM | > 6.30 | – | – | N#Cc1c[nH]c2ccc(-c3ccc(C(=O)N4CCN(C(=O)C5(O)CC5)CC4)cc3)cc12 [5-[4-({4-[(1-hydroxycyclopropyl)carbonyl]piperazin-1-yl}carbonyl)phenyl]-1H-indole-3-carbonitrile] |
| – | > 6.30 | ≥ 0.5 µM | – | O=C(c1ccc(-c2ccc3[nH]ccc3c2)cc1)N1CCN(C(=O)C2CCO2)CC1 (stereo not shown) [5-[4-({4-[(oxetan-2-yl)carbonyl]piperazin-1-yl}carbonyl)phenyl]-1H-indole] |
| < 0.5 µM | > 6.30 | – | – | O=C(c1ccc(-c2ccc3cnccc3c2)cc1)N1CCN(C(=O)C2CCO2)CC1 (stereo not shown) [6-[4-({4-[(oxetan-2-yl)carbonyl]piperazin-1-yl}carbonyl)phenyl]isoquinoline] |
| < 0.5 µM | > 6.30 | – | – | O=C(c1ccc(-c2cccc(NS(=O)(=O)c3ccccc3)c2)cc1)N1CCN(C(=O)C2(O)CC2)CC1 [N-{3-[4-({4-[(1-hydroxycyclopropyl)carbonyl]piperazin-1-yl}carbonyl)phenyl]phenyl}benzenesulfonamide] |
| < 0.5 µM | > 6.30 | – | – | O=C(c1ccc(-c2cccc(NS(=O)(=O)C3CC3)c2)cc1)N1CCN(C(=O)C2(O)CC2)CC1 [N-{3-[4-({4-[(1-hydroxycyclopropyl)carbonyl]piperazin-1-yl}carbonyl)phenyl]phenyl}cyclopropanesulfonamide] |
| < 0.5 µM | > 6.30 | – | – | CS(=O)(=O)Nc1cccc(-c2ccc(C(=O)N3CCN(C(=O)C4(O)CC4)CC3)cc2)c1 [N-{3-[4-({4-[(1-hydroxycyclopropyl)carbonyl]piperazin-1-yl}carbonyl)phenyl]phenyl}methanesulfonamide] |
